{
  "source": "patent US12544444B2",
  "about": "“Administration of tailored feedstock to increase antibiotic susceptibility” (U.S. Government, as represented by the Sec. of Army, c/o …, priority 2018, dated 2026)",
  "system": "Clostridium acetobutylicum",
  "assay": "antibiotic sensitivity test (OD600 after 24 hours in 96-well plate, anaerobic)",
  "format": "cell-based, Clostridium acetobutylicum strain ATCC 824",
  "settings": "C. acetobutylicum given oxidized feedstock compared to glucose as feedstock; FIG. 2, after 24 hours",
  "description": "Bacterial culture conditions and strains have been previously published. All strains and cultures were maintained or grown in an atmosphere of 5.0% H2, 5.0% CO2, and 90.0% N2. Clostridium acetobutylicum strain ATCC 824 was obtained from ATCC and cultured using company protocol at 37° C. into Clostridial growth medium or CGM containing 0.75 g KH2PO4, 0.75 g K2HPO4, 1.0 g NaCl, 0.017 g MnSO4.5H2O, 0.70 g MgSO4.7H2O, 0.01 g FeSO4.7H2O, 2.0 g 1-asparagine, 5.0 g yeast extract, 2.0 g (NH4)2SO4, and 0.5% final concentration of desired carbohydrate—D-glucose, D-galacturonic acid, D-gluconic acid—at pH 6.5. Active cultures from initial growth stock were added to potato glucose medium to be maintained and stored as a spore solution. Potato glucose medium or PGM contains per liter of H2O—150 g grated fresh potato, 10 g D-glucose, 0.5 g (NH4)SO4, and 3 g CaCO3. The medium was boiled for 1 hour and strained through gauze before sterilization and use for culture. […]\nThe protocol for antibiotic sensitivity test was performed as follows in anaerobic conditions: 200 μL of CGM medium containing either 0.5% D-galacturonate or D-glucose was aliquoted into a sterile Costar® 96-well polystyrene flat bottom plate in triplicate per test condition. […] The optical density of the cultures in the wells were measured at 600 nm via a commercially available plate reader.",
  "data": [
    {"smiles": "Cc1ncc([N+](=O)[O-])n1CCO", "note": "[metronidazole]", "values": [
      {"measurement": "antibiotic (metronidazole) susceptibility increase", "value": "at least two-fold"}
    ]}
  ]
}
